Each molecule was assayed against T1, ATR kinase (Homo sapiens, UniProt Q13535) (assay: Inhibitory effect on ATR kinase activity (Caliper mobility shift, FAM-labeled RAD17 peptide substrate)). Conditions: 1 nM ATR kinase (Eurofins), 28°C for 3 hours, maximum concentration 1 µM, 10 concentrations, read-out: ATR kinase IC50.
T1 construct: purchased Eurofins 14-953
T1 sequence (Q13535 whole entry): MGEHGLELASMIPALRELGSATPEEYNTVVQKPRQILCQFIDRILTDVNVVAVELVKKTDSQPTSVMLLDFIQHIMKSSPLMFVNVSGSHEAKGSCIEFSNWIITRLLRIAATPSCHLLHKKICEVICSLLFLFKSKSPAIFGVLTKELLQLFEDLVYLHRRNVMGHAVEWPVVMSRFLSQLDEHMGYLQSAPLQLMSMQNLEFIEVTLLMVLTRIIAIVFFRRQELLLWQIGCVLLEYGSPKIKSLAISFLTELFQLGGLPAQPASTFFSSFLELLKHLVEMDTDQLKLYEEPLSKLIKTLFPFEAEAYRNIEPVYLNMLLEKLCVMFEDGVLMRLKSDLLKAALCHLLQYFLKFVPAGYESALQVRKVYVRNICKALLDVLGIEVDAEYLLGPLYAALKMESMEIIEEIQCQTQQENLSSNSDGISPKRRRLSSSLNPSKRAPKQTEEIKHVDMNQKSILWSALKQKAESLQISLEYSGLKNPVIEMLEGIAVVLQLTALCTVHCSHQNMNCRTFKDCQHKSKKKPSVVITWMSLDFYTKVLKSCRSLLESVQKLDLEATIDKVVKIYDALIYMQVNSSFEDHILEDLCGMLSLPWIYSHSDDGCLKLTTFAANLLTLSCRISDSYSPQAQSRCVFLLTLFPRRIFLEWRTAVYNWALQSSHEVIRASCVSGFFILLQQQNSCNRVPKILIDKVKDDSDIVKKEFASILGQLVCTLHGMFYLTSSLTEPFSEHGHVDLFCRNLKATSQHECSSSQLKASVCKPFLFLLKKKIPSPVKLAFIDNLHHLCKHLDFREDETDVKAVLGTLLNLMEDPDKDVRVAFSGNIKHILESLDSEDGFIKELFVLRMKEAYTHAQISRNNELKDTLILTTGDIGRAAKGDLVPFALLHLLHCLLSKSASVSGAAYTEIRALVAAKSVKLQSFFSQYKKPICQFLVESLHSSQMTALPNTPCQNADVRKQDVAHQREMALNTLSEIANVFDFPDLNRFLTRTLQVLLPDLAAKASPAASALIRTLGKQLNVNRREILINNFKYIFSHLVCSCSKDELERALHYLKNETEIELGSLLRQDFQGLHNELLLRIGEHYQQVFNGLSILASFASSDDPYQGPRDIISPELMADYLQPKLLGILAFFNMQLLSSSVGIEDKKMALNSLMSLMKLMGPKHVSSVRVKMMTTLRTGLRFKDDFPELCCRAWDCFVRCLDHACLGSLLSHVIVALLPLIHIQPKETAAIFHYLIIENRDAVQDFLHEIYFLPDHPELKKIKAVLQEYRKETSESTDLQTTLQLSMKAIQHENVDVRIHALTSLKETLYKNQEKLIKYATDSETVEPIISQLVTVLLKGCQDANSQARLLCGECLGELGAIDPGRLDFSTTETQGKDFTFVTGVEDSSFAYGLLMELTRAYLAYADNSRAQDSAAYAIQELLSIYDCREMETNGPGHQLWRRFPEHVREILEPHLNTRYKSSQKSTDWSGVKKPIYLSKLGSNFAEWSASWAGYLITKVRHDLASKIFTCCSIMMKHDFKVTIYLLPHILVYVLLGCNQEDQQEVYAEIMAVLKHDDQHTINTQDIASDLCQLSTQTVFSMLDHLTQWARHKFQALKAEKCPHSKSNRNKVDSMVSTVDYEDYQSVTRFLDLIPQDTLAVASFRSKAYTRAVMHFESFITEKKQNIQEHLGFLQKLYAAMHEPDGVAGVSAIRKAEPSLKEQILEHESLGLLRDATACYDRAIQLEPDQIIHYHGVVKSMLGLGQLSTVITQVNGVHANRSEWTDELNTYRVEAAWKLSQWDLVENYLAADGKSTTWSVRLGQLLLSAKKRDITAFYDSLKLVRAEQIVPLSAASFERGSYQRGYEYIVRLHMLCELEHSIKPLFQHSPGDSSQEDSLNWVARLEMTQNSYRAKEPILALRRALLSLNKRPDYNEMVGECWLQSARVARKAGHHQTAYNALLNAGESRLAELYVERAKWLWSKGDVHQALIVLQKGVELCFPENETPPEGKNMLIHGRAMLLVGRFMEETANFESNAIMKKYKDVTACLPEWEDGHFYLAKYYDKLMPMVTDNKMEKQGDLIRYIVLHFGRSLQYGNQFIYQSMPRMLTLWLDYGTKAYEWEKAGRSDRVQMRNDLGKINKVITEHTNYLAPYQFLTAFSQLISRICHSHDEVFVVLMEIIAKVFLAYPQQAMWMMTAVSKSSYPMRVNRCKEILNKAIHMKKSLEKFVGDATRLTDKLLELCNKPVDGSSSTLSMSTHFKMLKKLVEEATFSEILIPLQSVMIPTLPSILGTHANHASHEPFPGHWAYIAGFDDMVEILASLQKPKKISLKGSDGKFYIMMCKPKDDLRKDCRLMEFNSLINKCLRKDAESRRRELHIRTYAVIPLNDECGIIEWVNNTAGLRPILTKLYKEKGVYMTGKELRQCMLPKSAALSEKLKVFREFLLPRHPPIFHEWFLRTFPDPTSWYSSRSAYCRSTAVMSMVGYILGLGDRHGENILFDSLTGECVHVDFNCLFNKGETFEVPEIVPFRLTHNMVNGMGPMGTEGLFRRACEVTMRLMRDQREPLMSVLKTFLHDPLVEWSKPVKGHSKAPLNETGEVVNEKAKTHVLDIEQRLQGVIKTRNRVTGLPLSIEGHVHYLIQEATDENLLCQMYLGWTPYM
T1 sequence (Q8WXE1 whole entry partner): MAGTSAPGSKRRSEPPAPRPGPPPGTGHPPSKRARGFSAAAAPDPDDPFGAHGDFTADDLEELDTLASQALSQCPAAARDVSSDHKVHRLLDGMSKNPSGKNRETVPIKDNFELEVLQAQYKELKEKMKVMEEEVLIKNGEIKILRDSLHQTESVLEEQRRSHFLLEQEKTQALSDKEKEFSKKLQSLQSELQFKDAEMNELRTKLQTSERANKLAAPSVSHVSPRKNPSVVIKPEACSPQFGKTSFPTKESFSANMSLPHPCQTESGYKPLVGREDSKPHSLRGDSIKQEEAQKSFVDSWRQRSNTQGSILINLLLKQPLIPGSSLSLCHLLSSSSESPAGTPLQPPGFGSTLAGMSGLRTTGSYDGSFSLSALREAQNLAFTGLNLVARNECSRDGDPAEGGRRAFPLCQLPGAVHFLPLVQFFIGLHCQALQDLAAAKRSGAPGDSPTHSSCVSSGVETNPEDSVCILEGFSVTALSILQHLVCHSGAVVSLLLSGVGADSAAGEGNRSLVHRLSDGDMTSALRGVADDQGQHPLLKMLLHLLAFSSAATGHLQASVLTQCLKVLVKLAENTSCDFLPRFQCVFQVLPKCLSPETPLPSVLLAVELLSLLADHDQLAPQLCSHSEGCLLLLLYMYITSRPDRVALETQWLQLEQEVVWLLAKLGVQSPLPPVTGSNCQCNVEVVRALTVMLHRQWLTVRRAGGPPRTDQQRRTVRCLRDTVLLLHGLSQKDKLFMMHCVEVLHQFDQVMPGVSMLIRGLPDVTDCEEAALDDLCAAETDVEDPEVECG
Type: biochemical
Procedure: Test Example 1: Inhibitory effect of the compounds of the present disclosure on ATR kinase activity
Test compounds to be tested were serially diluted with DMSO (maximum concentration 1 µM, 10 concentrations with 3-fold serial dilution) and added to the wells of a 384-well reaction plate (Corning, #4512). 1 nM ATR kinase (Eurofins, #14-953), 5 mM substrate (FAM-labeled RAD17 peptide, FAM-ASELPASQPQPFSAKKK), 5 mM ATP and the compounds with corresponding concentrations reacted in a kinase reaction solution (50 mM HEPES, pH 7.5; 0.0015% Brij-35; 10 mM MnCl2, total volume of 20 µL) at 28°C for 3 hours. The reaction was terminated by adding 30 µL of stop solution (100 mM HEPES, pH 7.5; 0.015% Brij-35; 0.2% Coating Reagent #3, PerkinElmer; 50 mM EDTA). The reaction plate was placed on a Caliper instrument (PerkinElmer) for testing. The relative inhibitory activity of each compound concentration group was calculated using the following formula: % Inhibition = (Conversion rate of the blank control group without compound added - Conversion rate of the test compound group) / (Conversion rate of the blank control group - […]). The IC50 values were calculated using GraphPad analysis and fitted. […] Table 1. Inhibitory effect (IC50) of compounds on ATR kinase activity.
With `CC(C(N)=O)N1C(=O)CCn2nc(-c3cc[nH]n3)c3nc(N4CCOC[C@H]4C)cc1c32` (stereo partly drawn) [Compound 104, 2-(4-((R)-3-methylmorpholino)-7-oxo-2-(1H-pyrazol-3-yl)-8,9-dihydro-1,3,6,9a-tetraazabenzo[cd]azulene-6(7H)-yl)propanamide] the IC50 was 10 to 100 nM.

Same assay, conditions: read-out: ATR kinase IC50, 1 nM ATR kinase (Eurofins), 28°C for 3 hours, maximum concentration 1 µM, 10 concentrations
With `C[C@@H]1COCCN1c1cc2c3c(nn(-c4cc[nH]n4)c3n1)CCN(C)C2=O` [Compound 137, (R)-7-methyl-4-(3-methylmorpholinyl)-2-(1H-pyrazol-3-yl)-2,7,8,9-tetrahydro-6H-1,2,3,7-tetraazabenzo[cd]azulene-6-one] the IC50 was 10 to 100 nM.

These molecules were tested on LoVo cells (assay: LoVo cell proliferation assay (CellTiter-Glo)). Conditions: Homo sapiens, LoVo, 120 h, LoVo cells, 2,000 cells per well, 5 days incubation, CellTiter-Glo; maximum concentration 10 µM, 9 concentrations; read-out: LoVo IC50.
Type: cell-based
Procedure: Test Example 2: LoVo cell proliferation assay
LoVo (ATCC, #CRL-229) cells in logarithmic growth phase were digested, counted, and plated into 96-well cell culture plates at 2,000 cells per well. The plates containing cells were incubated overnight at 37°C in a 5% CO2 incubator, and then test compounds with 3-fold gradient dilutions (maximum concentration: 10 µM, 9 concentrations) were added. DMSO was used as a blank control. After the LoVo cells containing the compounds or DMSO were incubated for an additional 5 days, an equal volume of CellTiter-Glo reagent (Promega, #7573) was added. After incubation at room temperature for 30 minutes, chemiluminescence was read using an Envision 2105 (PerkinElmer). The cell proliferation inhibition rate (%) for wells treated with each concentration of the compounds was calculated using the following formula. Then, with compound concentration as the horizontal axis and cell proliferation inhibition rate (%) as the vertical axis, GraphPad software was used to plot the data and determine the IC50 values of the test compounds. The results are shown in Table 2, wherein the IC50 ranges are defined as follows: A: ≤ 100 nM; 1000 nM ≥ B > 100 nM; C > 1000 nM.
Cell proliferation inhibition (%) = (1 - luminescence value of compound-treated group / average luminescence value of DMSO blank control group) × 100. Table 2. Inhibitory effect of compounds on LoVo growth
For `CC(C)C1c2cc(N3CCOC[C@H]3C)nc3c2c(nn3-c2cc[nH]n2)CCN1S(C)(=O)=O` (single isomer, unassigned) [Compound 140A], the IC50 was < 100 nM.
With `C[C@@H]1COCCN1c1cc2c3c(n1)c(-c1cc[nH]n1)nn3CCN2S(C)(=O)=O` [Compound 64] the IC50 was 100 to 1000 nM.
For `C[C@@H]1COCCN1c1cc2c3c(nn(-c4cc[nH]n4)c3n1)CCN(S(=O)(=O)C1COC1)C2` [Compound 26, (R)-3-methyl-4-(7-(oxetan-3-ylsulfonyl)-2-(1H-pyrazol-3-yl)-6,7,8,9-tetrahydro-2H-1,2,3,7-tetraazabenzo[cd]azulen-4-yl)morpholine], the IC50 was 100 to 1000 nM.
Work on `C[C@@H]1COCCN1c1cc2c3c(n1)c(-c1cc[nH]n1)nn3CCC2(C)O` (stereo partly drawn) [Compound 71, 6-methyl-4-((R)-3-methylmorpholino)-2-(1H-pyrazol-3-yl)-7,8-dihydro-6H-pyrazolo[4,5,1-ij][1, 7]naphthyridin-6-ol] yielded an IC50 of 100 to 1000 nM.
`C[C@@H]1COCCN1c1cc2c3c(nn(-c4cc[nH]n4)c3n1)CCN(S(=O)(=O)C(F)(F)F)C2` [Compound 25, (R)-4-(2-(1H-pyrazol-3-yl)-7-((trifluoromethyl)sulfonyl)-6,7,8,9-tetrahydro-2H-1,2,3,7-tetraazabenzo[cd]azulen-4-yl)-3-methylmorpholine] was tested, and the IC50 was < 100 nM.
In the case of `CC1c2cc(N3CCOC[C@H]3C)nc3c(-c4cc[nH]n4)nn(c23)CCN1S(C)(=O)=O` (stereo partly drawn) [Compound 60, (3R)-3-methyl-4-(6-methyl-7-(methylsulfonyl)-2-(1H-pyrazol-3-yl)-6,7,8,9-tetrahydro-1,3,7,9a-tetraazabenzo[cd]azulen-4-yl)morpholine], the IC50 is reported as 100 to 1000 nM.
Molecule `C[C@@H]1COCCN1c1cc2c3c(n1)c(-c1cc[nH]n1)nn3CCC(=O)N2[C@H](C)CC(F)(F)F` [Compound 111B, 4-((R)-3-methylmorpholino)-2-(1H-pyrazol-3-yl)-6-((R)-4,4,4-trifluorobutan-2-yl)-8,9-dihydro-1,3,6,9a-tetraazabenzo[cd]azulene-7(6H)-one] has an IC50 of 100 to 1000 nM.
With `C[C@@H]1COCCN1c1cc2c3c(n1)c(-c1cc[nH]n1)nn3CCC2(O)C1CCOCC1` (single isomer, unassigned) [Compound 73A] the IC50 was > 1000 nM.
`CC1c2cc(N3CCOC[C@H]3C)nc3c2c(nn3-c2cc[nH]n2)CCN1S(C)(=N)=O` (single isomer, unassigned) [Compound 46A] showed an IC50 of 100 to 1000 nM.
In the case of `C[C@@H]1COCCN1c1cc2c3c(n1)c(-c1cc[nH]n1)nn3CCNC2` [Compound 51, (R)-4-(2-(1H-pyrazol-3-yl)-6,7,8,9-tetrahydro-1,3,7,9a-tetraazabenzo[cd]azulen-4-yl)-3-methylmorpholine], the IC50 is reported as 100 to 1000 nM.
With `C[C@@H]1COCCN1c1cc2c3c(nn(-c4cc[nH]n4)c3n1)CCN(S(=O)(=O)C1CC1)C2C1CC1` (stereo partly drawn) [Compound 143, (3R)-4-(6-cyclopropyl-7-(cyclopropylsulfonyl)-2-(1H-pyrazol-3-yl)-6,7,8,9-tetrahydro-2H-1,2,3,7-tetraazabenzo[cd]-azulen-4-yl)-3-methylmorpholine] the IC50 was 100 to 1000 nM.
With `C[C@@H]1COCCN1c1cc2c3c(n1)c(-c1cc[nH]n1)nn3CCC(=O)N2[C@@H](C)CC(F)(F)F` [Compound 111A, 4-((R)-3-methylmorpholino)-2-(1H-pyrazol-3-yl)-6-((S)-4,4,4-trifluorobutan-2-yl)-8,9-dihydro-1,3,6,9a-tetraazabenzo[cd]azulene-7(6H)-one] the IC50 was 100 to 1000 nM.
Molecule `CC1c2cc(N3CCOC[C@H]3C)nc3c(-c4cc[nH]n4)nn(c23)CCN1C` (single isomer, unassigned) [Compound 59A] has an IC50 of 100 to 1000 nM.
In the case of `C[C@@H]1COCCN1c1cc2c3c(nn(-c4cc[nH]n4)c3n1)CCOC2C(F)F` (stereo partly drawn) [Compound 148, 6-(difluoromethyl)-4-((R)-3-methylmorpholino)-2-(1H-pyrazol-3-yl)-2,6,8,9-tetrahydro-7-oxa-1,2,3-triazabenzo[cd]azulene], the IC50 is reported as < 100 nM.
`CC1c2cc(N3CCOC[C@H]3C)nc3c2c(nn3-c2cc[nH]n2)CCN1S(N)(=O)=O` (stereo partly drawn) [Compound 150, 6-methyl-4-((R)-3-methylmorpholino)-2-(1H-pyrazol-3-yl)-2,6,8,9-tetrahydro-7H-1,2,3,7-tetraazabenzene[cd]azulene-7-sulfonamide] was tested, and the IC50 was 100 to 1000 nM.
`CC1c2cc(N3CCOC[C@H]3C)nc3c2c(nn3-c2cc[nH]n2)CCN1c1cnn(C)c1` (stereo partly drawn) [Compound 43, (3R)-3-methyl-4-(6-methyl-7-(1-methyl-1H-pyrazol-4-yl)-2-(1H-pyrazol-3-yl)-6,7,8,9-tetrahydro-2H-1,2,3,7-tetraazabenzo[cd]azulen-4-yl)morpholine] was tested, and the IC50 was 100 to 1000 nM.
In the case of `C[C@@H]1COCCN1c1cc2c3c(n1)c(-c1cc[nH]n1)nn3CCC2(O)c1cnn(C)c1` (single isomer, unassigned) [Compound 74A], the IC50 is reported as > 1000 nM.
With `CC1c2cc(N3CCOC[C@H]3C)nc3c2c(nn3-c2cc[nH]n2)CCN1CC(F)F` (single isomer, unassigned) [Compound 45A] the IC50 was 100 to 1000 nM.

Same assay, conditions: Homo sapiens, LoVo, 120 h, read-out: LoVo IC50 (nM), LoVo cells, 2,000 cells per well, 5 days incubation, CellTiter-Glo; maximum concentration 10 µM, 9 concentrations
With `C[C@@H]1COCCN1c1cc2c3c(nn(-c4cc[nH]n4)c3n1)CCC(=O)N2C1(CF)CC1` [Compound 80, (R)-6-(1-(fluoromethyl)cyclopropyl)-4-(3-methylmorpholinyl)-2-(1H-pyrazol-3-yl)-2,6,8,9-tetrahydro-7H-1,2,3,6-tetraazabenzo[cd]azulene-7-one] the IC50 was < 100 nM.
`C[C@@H]1COCCN1c1cc2c3c(nn(-c4cc[nH]n4)c3n1)CCC(=O)N2C12CC(C1)C2` [Compound 76, (R)-6-(bicyclo[1.1.1]pentan-1-yl)-4-(3-methylmorpholinyl)-2-(1H-pyrazol-3-yl)-2,6,8,9-tetrahydro-7H-1,2,3,6-tetraazabenzo[cd]azulene-7-one] was tested, and the IC50 was < 100 nM.

Same assay, conditions: LoVo cells, 2,000 cells per well, 5 days incubation, CellTiter-Glo; maximum concentration 10 µM, 9 concentrations; read-out: LoVo IC50
Molecule `CC1c2cc(N3CCOC[C@H]3C)nc3c2c(nn3-c2cc[nH]n2)CCN1CC1COC1` (single isomer, unassigned) [Compound 44B] has an IC50 of 100 to 1000 nM.
`CC1c2cc(N3CCOC[C@H]3C)nc3c(-c4cc[nH]n4)nn(c23)CCN1C` (single isomer, unassigned) [Compound 59B] was tested, and the IC50 was 100 to 1000 nM.
`CC(C)C1c2cc(N3CCOC[C@H]3C)nc3c2c(nn3-c2cc[nH]n2)CCN1S(C)(=O)=O` (single isomer, unassigned) [Compound 140B] gave an IC50 of 100 to 1000 nM.
For `CC1c2cc(N3CCOC[C@H]3C)nc3c2c(nn3-c2cc[nH]n2)CCN1S(C)(=N)=O` (single isomer, unassigned) [Compound 46D], the IC50 was 100 to 1000 nM.
In the case of `C[C@@H]1COCCN1c1cc2c3c(n1)c(-c1cc[nH]n1)nn3CCC2(O)c1cnn(C)c1` (single isomer, unassigned) [Compound 74B], the IC50 is reported as > 1000 nM.
`CC1c2cc(N3CCOC[C@H]3C)nc3c2c(nn3-c2cc[nH]n2)CCN1S(C)(=N)=O` (single isomer, unassigned) [Compound 46B] gave an IC50 of 100 to 1000 nM.
With `C[C@@H]1COCCN1c1cc2c3c(n1)c(-c1cc[nH]n1)nn3CCC2(O)C1CCOCC1` (single isomer, unassigned) [Compound 73B] the IC50 was > 1000 nM.
For `CC1c2cc(N3CCOC[C@H]3C)nc3c2c(nn3-c2cc[nH]n2)CCN1CC(F)F` (single isomer, unassigned) [Compound 45B], the IC50 was 100 to 1000 nM.
